From US20120277257A1, “Methods of Treating Diseases, Pharmaceutical Compositions, and Pharmaceutical Dosage Forms” (MYREXIS, INC., priority 2009, published 2012)

Legend:
[1] = test system: MIA PaCa-2 pancreatic cancer; assay: MIA PaCa-2 pancreatic cancer xenograft; conditions: 100 mg/kg ip, weekly, Day 15
[2] = test system: NCI-N87 Her2+ gastric cancer; assay: NCI-N87 (Her2+) gastric cancer xenograft in athymic nude mice; assay type: in vivo; conditions: 40 mg/kg oral, thrice weekly for three weeks, day 21
Protocol: The efficacy of Compound 1 was compared to that of SNX-5422 (Serenex, Pfizer, Inc.) on the growth of NCI-N87 (Her2+) human gastric cancer cells as a xenograft in athymic nude mice model. Animals were dosed with either 200 mg/kg of Compound 1 on days 1 through 21 or 40 mg/kg of SNX-5422 thrice weekly for three weeks. Tumor volumes and body weights were determined from Days 1 to 39.
Five million NCI-N87 cells were implanted subcutaneously in the right flank of female nude mice (Hsd:athymic nude-Foxn1^nu). When the median tumor volume was approximately 123 mm^3, mice were randomized into three cohorts of ten animals. One cohort was dosed orally with vehicle, one cohort was dosed orally with Compound 1 (200 mg/kg) formulated in vehicle, and one cohort was dosed orally with SNX-5422 (40 mg/kg) formulated in dimethylacetamide/polyethylene glycol 300. Vehicle and Compound 1 were administered on days 1-21 and SNX-5422 was administered thrice weekly on Days 1, 3, 5, 8, 10, 12, 15, 17 and 19. The mice were observed daily for mortality and signs of toxicity.
Xenografted mice bearing N-87 tumors (median volume ˜125 mm^3) were dosed orally with Compound 1 for three weeks with the dosing schedules indicated in FIG. 4.
Additionally, xenografted mice bearing N-87 tumors (median volume ˜115 mm^3) were dosed orally with Compound 1 for twenty-one days at 200 mg/kg, once daily or 100 mg/kg, twice-daily as indicated in FIG. 5. Tumor growth inhibition (TGI) was monitored up to Day 39.

[3] = test system: A549 non-small cell lung cancer; assay: A549 non-small cell lung cancer xenograft; assay type: in vivo, mice; conditions: maximum tolerated dose, oral once daily for 21 days, Day 22

Compound: O=c1[nH]cc(F)c(=O)[nH]1 [5-Fluorouracil, reference compound]
- TGI (tumor growth inhibition) [1]: 58%

Compound: CC1(C)CC(=O)c2c(C(F)(F)F)nn(-c3ccc(C(N)=O)c(N[C@H]4CC[C@H](OC(=O)CN)CC4)c3)c2C1 [SNX-5422, reference compound]
- decrease in median tumor volume [2]: 22%

Compound: C#Cc1cccc(Nc2ncnc3cc(OCCOC)c(OCCOC)cc23)c1 [erlotinib]
- TGI (tumor growth inhibition) [3]: 88%
